From patent US20130237511A1, “Copper Ion Delivery Platform for Pharmaceutical Agents” (University System of Georgia, priority 2012, published 2013)

Tests used:
[1] = ionic strengths 0.01 to 1, 25 and 37° C.; cited from earlier work
[2] = tested on: 786-0; test: NCI 60 cell line panel, single dose; assay type: cell-based; conditions: Renal Cancer, 786-0, single dose
Text: (§1) This complex performed at a similar level compared to individual tests for copper(II) sulfate as well as quinine sulfate (NSC).

[3] = tested on: A549/ATCC; test: NCI 60 cell line panel, single dose; assay type: cell-based; conditions: Non-Small Cell Lung Cancer
Text: as §1

[4] = tested on: ACHN; test: NCI 60 cell line panel, single dose; assay type: cell-based; conditions: Renal Cancer
Text: as §1

[5] = tested on: BT-549; test: NCI 60 cell line panel, single dose; assay type: cell-based; conditions: Breast Cancer, BT-549, single dose
Text: as §1

[6] = tested on: CAKI-1; test: NCI 60 cell line panel, single dose; assay type: cell-based; conditions: Renal Cancer, CAKI-1, single dose
Text: as §1

[7] = tested on: CCRF-CEM; test: NCI 60 cell line panel, single dose; assay type: cell-based; conditions: Leukemia
Text: as §1

[8] = tested on: COLO 205; test: NCI 60 cell line panel, single dose; assay type: cell-based; conditions: Colon Cancer, COLO 205, single dose
Text: as §1

[9] = tested on: DU-145; test: NCI 60 cell line panel, single dose; assay type: cell-based; conditions: Prostate Cancer, DU-145, single dose
Text: as §1

[10] = tested on: EKVX; test: NCI 60 cell line panel, single dose; assay type: cell-based; conditions: Non-Small Cell Lung Cancer
Text: as §1

[11] = tested on: HCC-2998; test: NCI 60 cell line panel, single dose; assay type: cell-based; conditions: Colon Cancer, HCC-2998, single dose
Text: as §1

[12] = tested on: HCT-116; test: NCI 60 cell line panel, single dose; assay type: cell-based; conditions: Colon Cancer, HCT-116, single dose
Text: as §1

[13] = tested on: HCT-15; test: NCI 60 cell line panel, single dose; assay type: cell-based; conditions: Colon Cancer, HCT-15, single dose
Text: as §1

[14] = tested on: HL-60(TB); test: NCI 60 cell line panel, single dose; assay type: cell-based; conditions: Leukemia
Text: as §1

[15] = tested on: HOP-62; test: NCI 60 cell line panel, single dose; assay type: cell-based; conditions: Non-Small Cell Lung Cancer, HOP-62, single dose
Text: as §1

[16] = tested on: HOP-92; test: NCI 60 cell line panel, single dose; assay type: cell-based; conditions: Non-Small Cell Lung Cancer, HOP-92, single dose
Text: as §1

[17] = tested on: HS 578T; test: NCI 60 cell line panel, single dose; assay type: cell-based; conditions: Breast Cancer
Text: as §1

[18] = tested on: HT29; test: NCI 60 cell line panel, single dose; assay type: cell-based; conditions: Colon Cancer
Text: as §1

[19] = tested on: IGROV1; test: NCI 60 cell line panel, single dose; assay type: cell-based; conditions: Ovarian Cancer
Text: as §1

[20] = tested on: KM12; test: NCI 60 cell line panel, single dose; assay type: cell-based; conditions: Colon Cancer
Text: as §1

[21] = tested on: LOX IMVI; test: NCI 60 cell line panel, single dose; assay type: cell-based; conditions: Melanoma
Text: as §1

[22] = tested on: M14; test: NCI 60 cell line panel, single dose; assay type: cell-based; conditions: Melanoma
Text: as §1

[23] = tested on: MALME-3M; test: NCI 60 cell line panel, single dose; assay type: cell-based; conditions: Melanoma
Text: as §1

[24] = tested on: MCF7; test: NCI 60 cell line panel, single dose; assay type: cell-based; conditions: Breast Cancer
Text: as §1

[25] = tested on: MDA-MB-231/ATCC; test: NCI 60 cell line panel, single dose; assay type: cell-based; conditions: Breast Cancer
Text: as §1

[26] = tested on: MDA-MB-435; test: NCI 60 cell line panel, single dose; assay type: cell-based; conditions: Melanoma, MDA-MB-435, single dose
Text: as §1

[27] = tested on: MDA-MB-468; test: NCI 60 cell line panel, single dose; assay type: cell-based; conditions: Breast Cancer, MDA-MB-468, single dose
Text: as §1

[28] = tested on: MOLT-4; test: NCI 60 cell line panel, single dose; assay type: cell-based; conditions: Leukemia, MOLT-4, single dose
Text: as §1

[29] = tested on: NCI-H226; test: NCI 60 cell line panel, single dose; assay type: cell-based; conditions: Non-Small Cell Lung Cancer
Text: as §1

[30] = tested on: NCI-H23; test: NCI 60 cell line panel, single dose; assay type: cell-based; conditions: Non-Small Cell Lung Cancer
Text: as §1

[31] = tested on: NCI-H322M; test: NCI 60 cell line panel, single dose; assay type: cell-based; conditions: Non-Small Cell Lung Cancer
Text: as §1

[32] = tested on: NCI-H460; test: NCI 60 cell line panel, single dose; assay type: cell-based; conditions: Non-Small Cell Lung Cancer
Text: as §1

[33] = tested on: NCI-H522; test: NCI 60 cell line panel, single dose; assay type: cell-based; conditions: Non-Small Cell Lung Cancer
Text: as §1

[34] = tested on: NCI/ADR-RES; test: NCI 60 cell line panel, single dose; assay type: cell-based; conditions: Ovarian Cancer
Text: as §1

[35] = tested on: OVCAR-3; test: NCI 60 cell line panel, single dose; assay type: cell-based; conditions: Ovarian Cancer, OVCAR-3, single dose
Text: as §1

[36] = tested on: OVCAR-4; test: NCI 60 cell line panel, single dose; assay type: cell-based; conditions: Ovarian Cancer, OVCAR-4, single dose
Text: as §1

[37] = tested on: OVCAR-5; test: NCI 60 cell line panel, single dose; assay type: cell-based; conditions: Ovarian Cancer, OVCAR-5, single dose
Text: as §1

[38] = tested on: OVCAR-8; test: NCI 60 cell line panel, single dose; assay type: cell-based; conditions: Ovarian Cancer, OVCAR-8, single dose
Text: as §1

[39] = tested on: RPMI-8226; test: NCI 60 cell line panel, single dose; assay type: cell-based; conditions: Leukemia, RPMI-8226, single dose
Text: as §1

[40] = tested on: RXF 393; test: NCI 60 cell line panel, single dose; assay type: cell-based; conditions: Renal Cancer, RXF 393, single dose
Text: as §1

[41] = tested on: SK-MEL-28; test: NCI 60 cell line panel, single dose; assay type: cell-based; conditions: Melanoma, SK-MEL-28, single dose
Text: as §1

[42] = tested on: SK-MEL-2; test: NCI 60 cell line panel, single dose; assay type: cell-based; conditions: Melanoma, SK-MEL-2, single dose
Text: as §1

[43] = tested on: SK-OV-3; test: NCI 60 cell line panel, single dose; assay type: cell-based; conditions: Ovarian Cancer, SK-OV-3, single dose
Text: as §1

[44] = tested on: SN12C; test: NCI 60 cell line panel, single dose; assay type: cell-based; conditions: Renal Cancer
Text: as §1

[45] = tested on: SR; test: NCI 60 cell line panel, single dose; assay type: cell-based; conditions: Leukemia
Text: as §1

[46] = tested on: SW-620; test: NCI 60 cell line panel, single dose; assay type: cell-based; conditions: Colon Cancer, SW-620, single dose
Text: as §1

[47] = tested on: T-47D; test: NCI 60 cell line panel, single dose; assay type: cell-based; conditions: Breast Cancer
Text: as §1

[48] = tested on: TK-10; test: NCI 60 cell line panel, single dose; assay type: cell-based; conditions: Renal Cancer, TK-10, single dose
Text: as §1

[49] = tested on: UACC-257; test: NCI 60 cell line panel, single dose; assay type: cell-based; conditions: Melanoma, UACC-257, single dose
Text: as §1

[50] = tested on: UACC-62; test: NCI 60 cell line panel, single dose; assay type: cell-based; conditions: Melanoma, UACC-62, single dose
Text: as §1

[51] = tested on: UO-31; test: NCI 60 cell line panel, single dose; assay type: cell-based; conditions: Renal Cancer, UO-31, single dose
Text: as §1

[52] = tested on: SF-268; test: NCI 60 cell line panel, single dose; assay type: cell-based; conditions: CNS Cancer, SF-268, single dose
[53] = tested on: SF-295; test: NCI 60 cell line panel, single dose; assay type: cell-based; conditions: CNS Cancer, SF-295, single dose
[54] = tested on: SF-539; test: NCI 60 cell line panel, single dose; assay type: cell-based; conditions: CNS Cancer, SF-539, single dose
[55] = tested on: SNB-19; test: NCI 60 cell line panel, single dose; assay type: cell-based; conditions: CNS Cancer, SNB-19, single dose
[56] = tested on: SNB-75; test: NCI 60 cell line panel, single dose; assay type: cell-based; conditions: CNS Cancer, SNB-75, single dose
[57] = tested on: U251; test: NCI 60 cell line panel, single dose; assay type: cell-based; conditions: CNS Cancer

C=C[C@H]1C[N@@]2CC[C@H]1C[C@H]2[C@H](O)c1ccnc2ccc(OC)cc12 [Quinine]
pKa1 [1]: approximately 4.2 | pKa2 [1]: 8.5

copper(II)-(quinine)2^+ [CuQ2]
Growth Percent [2]: 120.5% | Growth Percent [3]: 88.43% | Growth Percent [4]: 100.6% | Growth Percent [5]: 107.4% | Growth Percent [6]: 109.9% | Growth Percent [7]: 100.1% | Growth Percent [8]: 91.74% | Growth Percent [9]: 113.3% | Growth Percent [10]: 119.3% | Growth Percent [11]: 108.9% | Growth Percent [12]: 96.95% | Growth Percent [13]: 98.35% | Growth Percent [14]: 106.2% | Growth Percent [15]: 132.7% | Growth Percent [16]: 88.14% | Growth Percent [17]: 117.5% | Growth Percent [18]: 84.68% | Growth Percent [19]: 124.1% | Growth Percent [20]: 91.04% | Growth Percent [21]: 80.61% | Growth Percent [22]: 101.1% | Growth Percent [23]: 105.7% | Growth Percent [24]: 84.97% | Growth Percent [25]: 82.36% | Growth Percent [26]: 91.47% | Growth Percent [27]: 117.8% | Growth Percent [28]: 96.49% | Growth Percent [29]: 103.6% | Growth Percent [30]: 104.3% | Growth Percent [31]: 119.9% | Growth Percent [32]: 105.8% | Growth Percent [33]: 94.89% | Growth Percent [34]: 105% | Growth Percent [35]: 120% | Growth Percent [36]: 110.4% | Growth Percent [37]: 116.2% | Growth Percent [38]: 103.8% | Growth Percent [39]: 105.8% | Growth Percent [40]: 139.9% | Growth Percent [41]: 109.2% | Growth Percent [42]: 95.24% | Growth Percent [43]: 95.07% | Growth Percent [44]: 109.4% | Growth Percent [45]: 80.32% | Growth Percent [46]: 111% | Growth Percent [47]: 100.1% | Growth Percent [48]: 115% | Growth Percent [49]: 93.34% | Growth Percent [50]: 84.78% | Growth Percent [51]: 92.23% | Growth Percent [52]: 125.4% | Growth Percent [53]: 85.7% | Growth Percent [54]: 102.4% | Growth Percent [55]: 108.7% | Growth Percent [56]: 126.4% | Growth Percent [57]: 83.16%
